# Measurements from PubChem BioAssay AID1963833 (Molecular Pharmacology Branch, DTP, NCI, 2024).
# System: 883617-216-R-J1-PDC complex spheroid viability
# Experiment: Anticancer human tumor 883617-216-R-J1-PDC patient-derived bladder carcinoma cell line growth inhibition [POLQ]
# Settings: for IC50: curve of first compound; for viability, T/C: stronger effect = lower value
# Description: Multicellular complex tumor spheroid response to Polymerase (POL) inhibitors (novobiocin, ART-558, RP6685) in combination with a variety of drugs and investigational agents in selected tumor cell lines
# The POL inhibitors (novobiocin, ART-558, and RP6685) were evaluated both individually and in combination with standard of care and investigational anticancer small molecules within a complex spheroid model of solid tumors. . Complex spheroids include a stromal component modeled by human endothelial cells (HUVEC) and fibroblasts modeled by human mesenchymal stem cells (MSCs). The concentration ranges selected for each drug and investigational agent were based upon clinically achievable concentrations if the clinical Cmax of the agent was known.
# Compounds. The drugs and investigational agents: novobiocin (NSC847541), ART-558 (NSC835418), RP-6685 (NSC848927), peposertib (NSC802822), ceralasertib (NSC780249), elimusertib (NSC800525), camonsertib (NSC841442), AZD-1390 (NSC803789), olaparib (NSC753686), talazoparib (NSC767125), rucaparib (NSC756644), sotorasib (NSC818433), MRTX-1133 (NSC836407), SN-38 (NSC673596), topotecan (NSC609699), epotoside (NSC141540), doxorubicin (NSC123127), gemcitabine (NSC613327), 5-fluorouracil (NSC19893), paclitaxel (NSC125973), vemurafenib (NSC761431), MSA-2 (NSC828583), SN-011 (NSC837082), adavosertib (NSC754352), prexasertib (NSC758257), carboplatin (NSC241240) and oxaliplatin (NSC266046), were obtained from the National Cancer Institute (NCI) Developmental Therapeutics Program Chemical Repository (21). The FDA-approved anticancer drug set is available from the Developmental Therapeutics Program at https://dtp.cancer.gov/organization/dscb/obtaining/. […] The stock solutions were prepared in dimethyl sulfoxide (DMSO, Sigma-Aldrich, St. Louis, MO, cat. D2650), except for the platinum compounds which were prepared in saline (Quality Biological, Gaithersburg, MD, cat. 114-055-101), at 800-fold the tested concentration and stored at -70 degrees C prior to their use. All drugs and investigational agents were tested over a range starting from a high concentration at or near the clinical Cmax and decreasing in half-log increments. If the clinical Cmax for an agent had not been determined, the highest concentration tested was 10 microM, except for SN-38, which was tested at a high concentration of 1 microM.
# Cell Culture. All cells were maintained in an incubator at 37 degrees C and 5% CO2 with 95% humidity. The PDC lines were cultured according to standard operating procedures established by the NCI PDMR (https://pdmr.cancer.gov). Table 3 of the manuscript, lists the cell lines along with the number of the three cell types plated to form the mct-spheroids and media for tumor cell growth. After thawing, all PDC lines, except 997537-175-T-J1-PDC and 415267-285-R-J2-PDC, were cultured in Matrigel-coated flasks prepared with a working solution of 1X Ham's F-12 nutrient mix, without supplementation (Thermo Fisher Scientific, cat. 11765054), 100 U/mL penicillin-streptomycin (Thermo Fisher Scientific, cat. 15140122), and 2.5% Matrigel (Corning Inc., Corning, NY, cat. 354248) for the first three passages. The two PDC lines 997537-175-T-J1-PDC and 415267-285-R-J2-PDC were cultured on uncoated flasks. The 857933-349-R-J2-PDC line was cultured in 6C/Colon 1B media containing advanced DMEM/F-12 (Thermo Fisher Scientific, cat. 12634028), 10 mM HEPES (Thermo Fisher Scientific, cat. 15630080), 1X GlutaMAX supplement (Thermo Fisher Scientific, cat. 35050061), 0.1 mg/mL primocin (InvivoGen, San Diego, CA, cat. ant-pm-2), 10% defined fetal bovine serum, heat inactivated (HyClone Laboratories Inc., Logan, UT, cat. SH30070.03HI), 50% L-WRN conditioned media (ATCC, cat. CRL-3276), 1.25 mM N-Acetyl-L-cysteine (Sigma-Aldrich, cat. A9165), 10 mM nicotinamide (Sigma-Aldrich, cat. N0636), 1X B-27 supplement (Thermo Fisher Scientific, cat. 17504044), 1X N-2 supplement (Thermo Fisher Scientific, cat. […]
# [1] = second compound 0.0316 µM, first compound 0.0316 µM
# [2] = second compound 0.0316 µM, first compound 0.1 µM
# [3] = second compound 0.0316 µM, first compound 0.316 µM
# [4] = second compound 0.0316 µM, first compound 1 µM
# [5] = second compound 0.0316 µM, first compound 3.16 µM
# [6] = second compound 0.0316 µM, first compound 10 µM
# [7] = second compound 0.1 µM, first compound 0.0316 µM
# [8] = second compound 0.1 µM, first compound 0.1 µM
# [9] = second compound 0.1 µM, first compound 0.316 µM
# [10] = second compound 0.1 µM, first compound 1 µM
# [11] = second compound 0.1 µM, first compound 3.16 µM
# [12] = second compound 0.1 µM, first compound 10 µM
# [13] = second compound 0.316 µM, first compound 0.0316 µM
# [14] = second compound 0.316 µM, first compound 0.1 µM
# [15] = second compound 0.316 µM, first compound 0.316 µM
# [16] = second compound 0.316 µM, first compound 1 µM
# [17] = second compound 0.316 µM, first compound 3.16 µM
# [18] = second compound 0.316 µM, first compound 10 µM
# [19] = second compound 1 µM, first compound 0.0316 µM
# [20] = second compound 1 µM, first compound 0.1 µM
# [21] = second compound 1 µM, first compound 0.316 µM
# [22] = second compound 1 µM, first compound 1 µM
# [23] = second compound 1 µM, first compound 3.16 µM
# [24] = second compound 1 µM, first compound 10 µM
# [25] = second compound 3.16 µM, first compound 0.0316 µM
# [26] = second compound 3.16 µM, first compound 0.1 µM
# [27] = second compound 3.16 µM, first compound 0.316 µM
# [28] = second compound 3.16 µM, first compound 1 µM
# [29] = second compound 3.16 µM, first compound 3.16 µM
# [30] = second compound 3.16 µM, first compound 10 µM
# [31] = second compound 10 µM, first compound 0.0316 µM
# [32] = second compound 10 µM, first compound 0.1 µM
# [33] = second compound 10 µM, first compound 0.316 µM
# [34] = second compound 10 µM, first compound 1 µM
# [35] = second compound 10 µM, first compound 3.16 µM
# [36] = second compound 10 µM, first compound 10 µM
# 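Also: spheroids exposed to compounds for seven days before readout.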
# 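For viability, T/C in this document: 100% = DMSO vehicle control viability.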
smiles,measurement,setting,value
COc1ccc([C@@H](O)c2cc(-c3ncnc4cc(N5CCOCC5)ccc34)c(F)cc2Cl)nn1 + COC1C(OC(N)=O)C(O)C(Oc2ccc3c(O)c(NC(=O)c4ccc(O)c(CC=C(C)C)c4)c(=O)oc3c2C)OC1(C)C,IC50,second compound 0.0316 µM,2900 nM
same,IC50,second compound 0.1 µM,1800 nM
same,IC50,second compound 0.316 µM,1940 nM
same,IC50,second compound 1 µM,2440 nM
same,IC50,second compound 3.16 µM,2440 nM
same,IC50,second compound 10 µM,3210 nM
same,"viability, T/C",[1],92.5%
same,"viability, T/C",[2],104%
same,"viability, T/C",[3],94.5%
same,"viability, T/C",[4],77.5%
same,"viability, T/C",[5],47.9%
same,"viability, T/C",[6],39.1%
same,"viability, T/C",[7],98.5%
same,"viability, T/C",[8],82.2%
same,"viability, T/C",[9],104%
same,"viability, T/C",[10],61.3%
same,"viability, T/C",[11],45.2%
same,"viability, T/C",[12],33%
same,"viability, T/C",[13],93.9%
same,"viability, T/C",[14],89.2%
same,"viability, T/C",[15],76.8%
same,"viability, T/C",[16],56.1%
same,"viability, T/C",[17],46%
same,"viability, T/C",[18],28.2%
same,"viability, T/C",[19],108%
same,"viability, T/C",[20],85.8%
same,"viability, T/C",[21],80.8%
same,"viability, T/C",[22],61.3%
same,"viability, T/C",[23],45.1%
same,"viability, T/C",[24],33.1%
same,"viability, T/C",[25],95.9%
same,"viability, T/C",[26],95.2%
same,"viability, T/C",[27],78.3%
same,"viability, T/C",[28],65.5%
same,"viability, T/C",[29],45.4%
same,"viability, T/C",[30],33.3%
same,"viability, T/C",[31],87%
same,"viability, T/C",[32],79.3%
same,"viability, T/C",[33],86.4%
same,"viability, T/C",[34],68.1%
same,"viability, T/C",[35],51.3%
same,"viability, T/C",[36],34.2%
C=CC(=O)N1CCN(c2nc(=O)n(-c3c(C)ccnc3C(C)C)c3nc(-c4c(O)cccc4F)c(F)cc23)C(C)C1 (centres undefined) + Nc1ccc(C#CCN(C(=O)Cc2ncc(C(F)(F)F)cc2C(F)(F)F)c2ccc(F)cc2)nn1,IC50,second compound 0.0316 µM,> 10000 nM
same,IC50,second compound 0.1 µM,> 10000 nM
same,IC50,second compound 0.316 µM,> 10000 nM
same,IC50,second compound 1 µM,> 10000 nM
same,IC50,second compound 3.16 µM,> 10000 nM
same,IC50,second compound 10 µM,> 10000 nM
same,"viability, T/C",[1],71.3%
same,"viability, T/C",[2],69.1%
same,"viability, T/C",[3],67.8%
same,"viability, T/C",[4],82.7%
same,"viability, T/C",[5],82.3%
same,"viability, T/C",[6],83.9%
same,"viability, T/C",[7],63.3%
same,"viability, T/C",[8],72.8%
same,"viability, T/C",[9],64.7%
same,"viability, T/C",[10],72%
same,"viability, T/C",[11],81.9%
same,"viability, T/C",[12],88.2%
same,"viability, T/C",[13],68.5%
same,"viability, T/C",[14],64.8%
same,"viability, T/C",[15],61.8%
same,"viability, T/C",[16],72.5%
same,"viability, T/C",[17],77.3%
same,"viability, T/C",[18],73.4%
same,"viability, T/C",[19],61.4%
same,"viability, T/C",[20],57.2%
same,"viability, T/C",[21],71.7%
same,"viability, T/C",[22],78.3%
same,"viability, T/C",[23],75.8%
same,"viability, T/C",[24],91.2%
same,"viability, T/C",[25],60.4%
same,"viability, T/C",[26],67.2%
same,"viability, T/C",[27],71.5%
same,"viability, T/C",[28],70.6%
same,"viability, T/C",[29],77.8%
same,"viability, T/C",[30],91%
same,"viability, T/C",[31],64.5%
same,"viability, T/C",[32],63.8%
same,"viability, T/C",[33],73.9%
same,"viability, T/C",[34],77.2%
same,"viability, T/C",[35],91.1%
same,"viability, T/C",[36],72.1%
